Laboratory results reported in US11865111B2, “Antiviral drugs targeting the N-terminal domain (NTD) of the coronavirus spike receptor binding domain (RBD)” (priority 2021, dated 2024).
Like-named read-outs stand apart in the source and are kept apart here.

Tests used:
[1] = test system: SARS-CoV-2 (USA-WA1/2020); test: microbe, parasite or virus in culture; format: cell-based; details: for SI (selectivity index=CC50/EC50): CC50/EC50, against the SARS-CoV-2 strain
[2] = in vitro; details: African green monkey
[3] = Severe acute respiratory syndrome coronavirus 2, Vero C1008, 32 h, read-out: EC50
[4] = Severe acute respiratory syndrome coronavirus 2, Vero C1008, 32 h, read-out: EC90
[5] = Severe acute respiratory syndrome coronavirus 2, Vero C1008, against the SARS-CoV-2 strain, read-out: EC90 value

Compound | SI (selectivity index=CC50/EC50) [1] | EC50 [1, 3] | EC90 [1, 4] | CC50 [2] | EC50 ([1]; Severe acute respiratory syndrome coronavirus 2, Vero C1008, against the SARS-CoV-2 strain, read-out: EC50 value) | EC90 [1, 5] | EC50 ([1]; Severe acute respiratory syndrome coronavirus 2, Vero C1008, against the SARS-CoV-2 strain, unit inferred, read-out: EC50 value)
COC(=O)c1cccc(CNCc2cccc(-c3csc(-c4nc5ccccc5[nH]4)c3)c2)c1 [Compound 1, methyl 3-(((3-(5-(1H-benzo[d]imidazol-2-yl)thiophen-3-yl)benzyl)amino)methyl)benzoate] | >5.30 | 5.66 µM | 9.5 µM | > 30 µM |  |  | 
CNC(=O)c1cccc(CNCc2cccc(-c3csc(-c4nc5ccccc5[nH]4)c3)c2)c1 [Compound 2, 3-(((3-(5-(1H-benzo[d]imidazol-2-yl)thiophen-3-yl)benzyl)amino)methyl)-N-methylbenzamide] | >4.04 | 7.43 µM | 13.1 µM | > 30 µM |  |  | 
COC(=O)c1cccc(CNC(=O)c2cccc(-c3csc(-c4nc5ccccc5[nH]4)c3)c2)c1 [Compound 3, methyl 3-((3-(5-(1H-benzo[d]imidazol-2-yl)thiophen-3-yl)benzamido)methyl)benzoate] | >4.00 | 7.5 µM | 12.6 µM | > 30 µM |  |  | 
CCOc1cc(CN2CCC(C(=O)Nc3cccc(-c4cccc(F)c4)c3)CC2)ccc1O [Compound 4, 1-(3-ethoxy-4-hydroxybenzyl)-N-(3′-fluoro-[1,1′-biphenyl]-3-yl)piperidine-4-carboxamide] | >4.92 | 6.1 µM | 10.1 µM | > 30 µM |  |  | 
CCOc1cc(CN2CCC(C(=O)Nc3cccc(-c4cccc(C(F)(F)F)c4)c3)CC2)ccc1O [Compound 5, 1-(3-ethoxy-4-hydroxybenzyl)-N-(3′-(trifluoromethyl)-[1,1′-biphenyl]-3-yl)piperidine-4-carboxamide] | 3.20 | 4.91 µM | 7.47 µM | 15.6 µM |  |  | 
CCOc1cc(CN2CCC(C(=O)Nc3cccc(-c4cccc(OC)c4)c3)CC2)ccc1O [Compound 6, 1-(3-ethoxy-4-hydroxybenzyl)-N-(3′-methoxy-[1,1′-biphenyl]-3-yl)piperidine-4-carboxamide] | 3.70 | 7.16 µM | 11.5 µM | 26.3 µM |  |  | 
O=C(Nc1cccc(-c2cccc(Cl)c2)c1)C1CCN(Cc2ccc(O)cc2)CC1 [Compound 7, N-(3′-chloro-[1,1′-biphenyl]-3-yl)-1-(4-hydroxybenzyl)piperidine-4-carboxamide] | 3.36 | 6.4 µM | 11 µM | 21 µM |  |  | 
COc1ccc(CN2CCC(C(=O)Nc3cccc(-c4cccc(Cl)c4)c3)CC2)cc1O [Compound 8, N-(3′-chloro-[1,1′-biphenyl]-3-yl)-1-(3-hydroxy-4-methoxybenzyl)piperidine-4-carboxamide] | 2.48 | 6.9 µM | 11.7 µM | 17 µM |  |  | 
CCOc1cc(CN2CCC(C(=O)Nc3cccc(-c4cccc(Cl)c4)c3)CC2)ccc1O [Compound 9, N-(3′-chloro-[1,1′-biphenyl]-3-yl)-1-(3-ethoxy-4-hydroxybenzyl)piperidine-4-carboxamide] | 2.80 | 5.8 µM | 8.9 µM | 16 µM |  |  | 
CCOc1cc(CN2CCC(C(=O)Nc3cccc(-c4ccc(Cl)cc4)c3)CC2)ccc1O [Compound 10, N-(4′-chloro-[1,1′-biphenyl]-3-yl)-1-(3-ethoxy-4-hydroxybenzyl)piperidine-4-carboxamide] | 2.65 | 6.2 µM | 9.1 µM | 16 µM |  |  | 
COc1cc(C(=O)OCCCN2CCCN(CCCOC(=O)c3cc(OC)c(OC)c(OC)c3)CC2)cc(OC)c1OC [Dilazep, 3-[4-[3-(3,4,5-trimethoxybenzoyl)oxypropyl]-1,4-diazepan-1-yl]propyl 3,4,5-trimethoxybenzoate, reference compound] |  |  |  | > 30 µM | 3.89 µM | 19.8 µM | 
O=C(NC1CCN(CCCCC2(C(=O)NCC(F)(F)F)c3ccccc3-c3ccccc32)CC1)c1ccccc1-c1ccc(C(F)(F)F)cc1 [N-(2,2,2-trifluoroethyl)-9-(4-(4-(4′-(trifluoromethyl)-[1,1′-biphenyl]-2-carboxamido)piperidin-1-yl)butyl)-9H-fluorene-9-carboxamide, reference compound] | 5.92 |  |  | 9.56 µM |  | 2.83 µM | 1.61 µM
